Here are results for 11 compounds from patent US9850283B2, “Macrocyclic inhibitors of the PD-1/PD-L1 and CD80(B7-1)/PD-L1 protein/protein interactions” (BRISTOL-MYERS SQUIBB COMPANY, priority 2013, dated 2017).

For one experiment, the target named is T1, Human PD-L1/PD-1 (Homo sapiens, UniProt Q9NZQ7).
T1 construct: made in house; host or cells: HEK293T
In words: HTRF PD-1-Ig/PD-L1-His binding assay (human PD-L1). The note with it: cluster symbol; read-out: HTRF IC50 cluster. An outline of the steps: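 Ig- and His-fused extracellular PD-1/PD-L1 binding in BSA/Tween-20 dPBS. HTRF with Eu anti-Ig (1 nM final) and APC anti-His (20 nM final).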
Background: TR-FRET usually uses a lanthanide donor and a delayed reading to cut background.

Experiment [1] concerns the target T2, LK35.2-hPD-L1 cells / PE-labeled PD-1-Ig (Homo sapiens, UniProt Q9NZQ7).
T2 construct: expressed in transfected cells; host or cells: LK35.2 mouse B cell line
As to the kind of experiment: LK35.2-hPD-L1 cell binding high-content screening assay. The class given is cell-based. The note with it: cluster symbol, read-out: CBA IC50 cluster. Summed up:
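Readout: high-content imaging of PE-PD-1-Ig bound to LK35.2-hPD-L1 cells. Cells plated overnight (RPMI/10% FCS); compound + 1 nM PE-PD-1-Ig, 1 h, 37 °C; 3× dPBS wash before imaging.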

Where [2] appears, read: cell line of CBA not given (LK35.2-hPD-L1 or 293T-hPD-L1).

What is called IC50 is the point on the concentration scale where inhibition reaches its midpoint.

Where two headings read alike, the source gives them in different places. Positions of bridges follow the written chain, without caps; N, C: chain ends. Non-standard residues stand in square brackets, D forms with d. Residues, ends and D or L forms follow the SMILES beside them. ξ: configuration not given here. Phe(3-CF3) = N[C@@H](Cc1cccc(C(F)(F)F)c1)C(=O)O; Phe(3-OMe) = COc1cccc(C[C@H](N)C(=O)O)c1; Phe(4-Cl) = N[C@@H](Cc1ccc(Cl)cc1)C(=O)O; Phe(2-Cl) = N[C@@H](Cc1ccccc1Cl)C(=O)O; Bta = N[C@@H](Cc1csc2ccccc12)C(=O)O; Hyp = O=C(O)[C@@H]1C[C@@H](O)CN1; NMeF = CN[C@@H](Cc1ccccc1)C(=O)O; dNMeE = CN[C@H](CCC(=O)O)C(=O)O; NMeNle = CCCC[C@H](NC)C(=O)O; Pip = O=C(O)[C@@H]1CCCCN1; dPip = O=C(O)[C@H]1CCCCN1; NMeA = CN[C@@H](C)C(=O)O; Orn = NCCC[C@H](N)C(=O)O; Dap = NC[C@H](N)C(=O)O; ξOrn = NCCCC(N)C(=O)O; ξP = O=C(O)C1CCCN1; Sar = CNCC(=O)O

T2 sequence (Q9NZQ7 19-290): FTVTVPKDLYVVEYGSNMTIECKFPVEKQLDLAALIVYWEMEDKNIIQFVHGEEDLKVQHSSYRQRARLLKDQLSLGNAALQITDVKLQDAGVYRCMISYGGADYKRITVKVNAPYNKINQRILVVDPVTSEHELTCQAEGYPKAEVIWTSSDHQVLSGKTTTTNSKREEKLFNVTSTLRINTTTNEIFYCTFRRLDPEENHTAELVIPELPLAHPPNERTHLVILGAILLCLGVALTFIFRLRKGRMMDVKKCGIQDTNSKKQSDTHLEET
T1 sequence (Q9NZQ7 with tags, fused parts or gaps): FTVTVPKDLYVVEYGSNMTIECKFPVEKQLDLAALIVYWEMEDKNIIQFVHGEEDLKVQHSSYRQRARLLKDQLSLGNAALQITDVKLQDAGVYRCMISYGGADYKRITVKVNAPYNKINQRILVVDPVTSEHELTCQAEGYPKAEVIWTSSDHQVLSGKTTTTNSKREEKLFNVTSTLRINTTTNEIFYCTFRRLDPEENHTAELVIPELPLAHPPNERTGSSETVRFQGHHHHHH

Turning to `CCCC[C@H]1C(=O)N(C)[C@@H](CCCC)C(=O)N[C@@H](CCCNC(=N)N)C(=O)N[C@H](C(=O)NCC(N)=O)CSCC(=O)N[C@@H](Cc2ccccc2Cl)C(=O)N(C)[C@@H](C)C(=O)N[C@@H](CC(N)=O)C(=O)N2CCC[C@H]2C(=O)N[C@@H](Cc2cnc[nH]2)C(=O)N[C@@H](CC(C)C)C(=O)N(C)CC(=O)N[C@@H](Cc2c[nH]c3ccccc23)C(=O)N[C@@H](CO)C(=O)N[C@@H](Cc2c[nH]c3ccccc23)C(=O)N1C` [Example 1101] ({CH2CO}-[Phe(2-Cl)][NMeA]NPHL[Sar]WSW[NMeNle][NMeNle]RCG-NH2; thioether N-14), the results for the IC50 (on Human PD-L1/PD-1; in experiment [1] (setting [2])) were > 30.5 nM and > 74.3 nM, respectively.
In the case of `CCCC[C@H]1C(=O)N(C)CC(=O)N[C@@H](CC(=O)O)C(=O)N[C@@H](C(C)C)C(=O)N(C)[C@@H](Cc2ccccc2)C(=O)N[C@@H](Cc2ccc(O)cc2)C(=O)N(C)CC(=O)N[C@@H](Cc2csc3ccccc23)C(=O)N[C@@H](Cc2ccc(O)cc2)C(=O)N[C@@H](CC(C)C)C(=O)N[C@H](C(=O)NCC(N)=O)CSCC(=O)N[C@@H](Cc2ccc(Cl)cc2)C(=O)N(C)[C@@H](Cc2ccccc2)C(=O)N1C` [Example 3115] ({CH2CO}-[Phe(4-Cl)][NMeF][NMeNle][Sar]DV[NMeF]Y[Sar][Bta]YLCG-NH2; thioether N-13), the IC50 on Human PD-L1/PD-1 was 6.76 to 30.3 nM; in experiment [1] (setting [2]), 4.78 to 72.9 nM.
In the same order, the values of `CCCC[C@H]1C(=O)N(C)[C@@H](CCCC)C(=O)N[C@@H](CCCN)C(=O)N[C@H](C(=O)NCC(N)=O)CSCC(=O)N[C@@H](Cc2ccc(O)cc2)C(=O)N2CCCC[C@H]2C(=O)N[C@@H](CC(=O)O)C(=O)N2CCC[C@H]2C(=O)N[C@@H](CN)C(=O)N[C@@H](CC(C)C)C(=O)N2C[C@H](O)C[C@H]2C(=O)N[C@@H](Cc2c[nH]c3ccccc23)C(=O)N[C@@H](CO)C(=O)N[C@@H](Cc2c[nH]c3ccccc23)C(=O)N1C` [Example 1235] ({CH2CO}-Y[Pip]DP[Dap]L[Hyp]WSW[NMeNle][NMeNle][Orn]CG-NH2; thioether N-14) are 6.76 to 30.3 nM and 0.158 to 4.71 nM.
For the compound `CCCC[C@H]1C(=O)N(C)[C@@H](CCCC)C(=O)N[C@@H](CCCNC(=N)N)C(=O)N[C@H](C(=O)NCC(N)=O)CSCC(=O)N[C@@H](Cc2ccccc2)C(=O)N(C)[C@@H](C)C(=O)N[C@@H](CC(N)=O)C(=O)N2CCC[C@H]2C(=O)N[C@@H](Cc2cnc[nH]2)C(=O)N[C@@H](CC(C)C)C(=O)N(C)CC(=O)N[C@@H](Cc2cccc(C(F)(F)F)c2)C(=O)N[C@@H](CO)C(=O)N[C@@H](Cc2c[nH]c3ccccc23)C(=O)N1C` [Example 1018] ({CH2CO}-F[NMeA]NPHL[Sar][Phe(3-CF3)]SW[NMeNle][NMeNle]RCG-NH2; thioether N-14), the IC50 is > 30.5 nM at Human PD-L1/PD-1 and > 74.3 nM in experiment [1] (setting [2]).
For `CCCC[C@H]1C(=O)N(C)[C@@H](CCCC)C(=O)N[C@@H](C)C(=O)N[C@H](C(=O)NCC(N)=O)CSCC(=O)N[C@@H](Cc2ccc(O)cc2)C(=O)N2CCC[C@H]2C(=O)N[C@@H](CC(=O)O)C(=O)N2CCC[C@H]2C(=O)N[C@@H](CN)C(=O)N[C@@H](CC(C)C)C(=O)N2C[C@H](O)C[C@H]2C(=O)N[C@@H](Cc2c[nH]c3ccccc23)C(=O)N[C@@H](CO)C(=O)N[C@@H](Cc2c[nH]c3ccccc23)C(=O)N1C` [Example 1152] ({CH2CO}-YPDP[Dap]L[Hyp]WSW[NMeNle][NMeNle]ACG-NH2; thioether N-14) the same measures were 6.76 to 30.3 nM and 4.78 to 72.9 nM.
For `CCCC[C@H]1C(=O)N(C)[C@@H](CCCC)C(=O)N[C@@H](CCCNC(=N)N)C(=O)N[C@H](C(=O)NCC(N)=O)CSCC(=O)N[C@@H](Cc2ccc(O)cc2)C(=O)N(C)[C@@H](C)C(=O)N[C@@H](CC(N)=O)C(=O)N2CCC[C@H]2C(=O)N[C@@H](Cc2cnc[nH]2)C(=O)N[C@@H](CC(C)C)C(=O)N2CCC[C@H]2C(=O)N[C@@H](Cc2c[nH]c3ccccc23)C(=O)N[C@@H](CO)C(=O)N[C@@H](Cc2c[nH]c3ccccc23)C(=O)N1C` [Example 1016] ({CH2CO}-Y[NMeA]NPHLPWSW[NMeNle][NMeNle]RCG-NH2; thioether N-14) the same measures were 0.385 to 6.74 nM and 0.158 to 4.71 nM.
For `CCCC[C@H]1C(=O)N(C)[C@@H](CCCC)C(=O)N[C@@H](CCCNC(=N)N)C(=O)N[C@H](C(=O)NCC(N)=O)CSCC(=O)N[C@@H](Cc2ccc(O)cc2)C(=O)N(C)[C@@H](C)C(=O)N[C@@H](CC(N)=O)C(=O)N2CCC[C@H]2C(=O)N[C@@H](Cc2cnc[nH]2)C(=O)N[C@@H](CCC(=O)O)C(=O)N2CCC[C@H]2C(=O)N[C@@H](Cc2c[nH]c3ccccc23)C(=O)N[C@@H](CO)C(=O)N[C@@H](Cc2c[nH]c3ccccc23)C(=O)N1C` [Example 1090] ({CH2CO}-Y[NMeA]NPHEPWSW[NMeNle][NMeNle]RCG-NH2; thioether N-14) the same measures were 0.385 to 6.74 nM and 0.158 to 4.71 nM.
As to `CCCC[C@H]1C(=O)N(C)[C@@H](CCCC)C(=O)NC(CCCN)C(=O)N[C@H](C(=O)NCC(N)=O)CSCC(=O)N[C@@H](Cc2ccc(O)cc2)C(=O)N(C)[C@@H](C)C(=O)N[C@@H](CC(N)=O)C(=O)N2CCCC2C(=O)N[C@@H](Cc2cnc[nH]2)C(=O)N[C@@H](CC(C)C)C(=O)N2CCC[C@H]2C(=O)N[C@@H](Cc2c[nH]c3ccccc23)C(=O)N[C@@H](CO)C(=O)N[C@@H](Cc2csc3ccccc23)C(=O)N1C` (stereo partly shown) [Example 1042] ({CH2CO}-Y[NMeA]N[ξP]HLPWS[Bta][NMeNle][NMeNle][ξOrn]CG-NH2; thioether N-14), the IC50 was 0.385 to 6.74 nM on Human PD-L1/PD-1 and 0.158 to 4.71 nM in experiment [1] (setting [2]).
For `CCCC[C@H]1C(=O)N(C)[C@@H](CCCC)C(=O)N[C@@H](C)C(=O)N[C@H](C(=O)NCC(=O)O)CSCC(=O)N[C@@H](Cc2ccc(O)cc2)C(=O)N(C)[C@@H](C)C(=O)N[C@@H](CC(N)=O)C(=O)N2CCC[C@H]2C(=O)N[C@@H](Cc2cnc[nH]2)C(=O)N[C@@H](CC(C)C)C(=O)N[C@@H](CCCCN)C(=O)N[C@@H](Cc2c[nH]c3ccccc23)C(=O)N[C@@H](CO)C(=O)N[C@@H](Cc2c[nH]c3ccccc23)C(=O)N1C` [Example 1238], the IC50 on Human PD-L1/PD-1 lay in the range of 6.76 to 30.3 nM; in experiment [1] (setting [2]) it was 4.78 to 72.9 nM.
As for `CCCC[C@H]1C(=O)N(C)[C@H](CCC(=O)O)C(=O)N[C@@H](CC(N)=O)C(=O)N[C@@H](C(C)C)C(=O)N(C)[C@@H](Cc2ccccc2)C(=O)N[C@@H](Cc2ccc(O)cc2)C(=O)N2CCCC[C@@H]2C(=O)N[C@@H](Cc2c[nH]c3ccccc23)C(=O)N[C@@H](Cc2ccc(O)cc2)C(=O)N[C@@H](CCCCN)C(=O)N[C@H](C(=O)NCC(N)=O)CSCC(=O)N[C@@H](Cc2ccccc2)C(=O)N(C)[C@@H](Cc2ccccc2)C(=O)N1C` [Example 3593] ({CH2CO}-F[NMeF][NMeNle][dNMeE]NV[NMeF]Y[dPip]WYKCG-NH2; thioether N-13), the IC50 lay in the range of 0.385 to 6.74 nM on Human PD-L1/PD-1 and 0.158 to 4.71 nM in experiment [1] (cell binding assay, cell line not given).
Take `CCCC[C@H]1C(=O)N(C)[C@@H](CCCC)C(=O)N[C@@H](CCCNC(=N)N)C(=O)N[C@H](C(=O)NCC(N)=O)CSCC(=O)N[C@@H](Cc2cccc(OC)c2)C(=O)N(C)[C@@H](C)C(=O)N[C@@H](CC(N)=O)C(=O)N2CCC[C@H]2C(=O)N[C@@H](Cc2cnc[nH]2)C(=O)N[C@@H](CC(C)C)C(=O)N(C)CC(=O)N[C@@H](Cc2c[nH]c3ccccc23)C(=O)N[C@@H](CO)C(=O)N[C@@H](Cc2c[nH]c3ccccc23)C(=O)N1C` [Example 1098] ({CH2CO}-[Phe(3-OMe)][NMeA]NPHL[Sar]WSW[NMeNle][NMeNle]RCG-NH2; thioether N-14): the IC50 on Human PD-L1/PD-1 was in the range of 6.76 to 30.3 nM; in experiment [1] (setting [2]), 4.78 to 72.9 nM.
